Target: T1, Mcl-1/Bim interaction, recombinant human Mcl-1 (171-327) (Homo sapiens, UniProt Q07820)
T1 construct: made in house
Test: Cell free Mcl-1: Bim Affinity Assay (Mcl-1 HTRF)
Format: binding
Settings: TR-FRET, 0.1 nM Mcl-1 (171-327), 0.05 nM biotin-Bim (51-76)
Summary of the method: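 Read-out is time-resolved FRET after overnight incubation, using a biotin-labelled peptide from human Bim (51-76) as the binding partner; IC50 was derived from competition curves.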

T1 sequence (Q07820 171-327): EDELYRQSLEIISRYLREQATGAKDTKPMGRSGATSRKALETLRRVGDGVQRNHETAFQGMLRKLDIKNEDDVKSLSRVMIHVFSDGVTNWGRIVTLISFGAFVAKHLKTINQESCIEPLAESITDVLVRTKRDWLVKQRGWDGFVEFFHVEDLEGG

Molecule	IC50 [nM]
Cc1noc(C)c1CO[C@@H]1/C=C/CCCS(=O)(=O)NC(=O)c2ccc3c(c2)N(C[C@@H]2CC[C@H]21)C[C@@]1(CCCc2cc(Cl)ccc21)CO3 [Example 214, (1S,3′R,6′R,7′R,8′E)-6-chloro-7′-((3,5-dimethyl-4-isoxazolyl)methoxy)-3,4-dihydro-2H,15′H-spiro[naphthalene-1,22′-[20]oxa[13]thia[1,14]diazatetracyclo[14.7.2.0^3,6.0^19,24]pentacosa [8,16,18,24]tetraen]-15′-one 13′,13′-dioxide]	12.3
COC[C@@H]1C[C@@H](C)CC[C@H](O)[C@@H]2CC[C@H]2CN2C[C@@]3(CCCc4cc(Cl)ccc43)COc3ccc(cc32)C(=O)NS1(=O)=O (single isomer, unassigned) [Example 1037]	0.831
O=C1NS(=O)(=O)CC[C@H](CO)/C=C/[C@H](O)[C@@H]2CC[C@H]2CN2C[C@@]3(CCCc4cc(Cl)ccc43)COc3ccc1cc32 [Example 201, (1S,3′R,6′R,7′S,8′E,10′S)-6-chloro-7′-hydroxy-10′-(hydroxymethyl)-3,4-dihydro-2H,15′H-spiro[naphthalene-1,22′-[20]oxa[13]thia[1,14]diazatetracyclo[14.7.2.0^3,6.0^19,24]pentacosa [8,16,18,24]tetraen]-15′-one 13′,13′-dioxide]	2.69
CC[C@@H]1CC/C=C/[C@H](OCC2CCOCC2)[C@@H]2CC[C@H]2CN2C[C@@]3(CCCc4cc(Cl)ccc43)COc3ccc(cc32)C(=O)NS1(=O)=O [Example 983, (1S,3′R,6′R,7′S,8′E,12′R)-6-chloro-12′-ethyl-7′-(tetrahydro-2H-pyran-4-ylmethoxy)-3,4-dihydro-2H,15′H-spiro[naphthalene-1,22′-[20]oxa[13]thia[1,14]diazatetracyclo[14.7.2.0^3,6.0^19,24]pentacosa [8,16,18,24]tetraen]-15′-one 13′,13′-dioxide]	1.23
COC[C@@H]1CC/C=C/[C@H](OC)[C@@H]2CC[C@H]2CN2C[C@@]3(CCCc4cc(Cl)ccc43)COc3ccc(cc32)C(=O)NS1(=O)=O [Example 444, (1S,3′R,6′R,7′S,8′E,12′S)-6-chloro-7′-methoxy-12′-(methoxymethyl)-3,4-dihydro-2H,15′H-spiro[naphthalene-1,22′-[20]oxa[13]thia[1,14]diazatetracyclo[14.7.2.0^3,6.0^19,24]pentacosa [8,16,18,24]tetraen]-15′-one 13′,13′-dioxide]	0.785
CC[C@@H]1CCCC[C@@H](NC(=O)C(C)C)[C@@H]2CC[C@H]2CN2C[C@@]3(CCCc4cc(Cl)ccc43)COc3ccc(cc32)C(=O)NS1(=O)=O [Example 1083]	2.19
O=C1NS(=O)(=O)[C@@H](C(F)(F)F)CCCC[C@H](O)[C@@H]2CC[C@H]2CN2C[C@@]3(CCCc4cc(Cl)ccc43)COc3ccc1cc32 (single isomer, unassigned) [Example 433]	3.23
O=C1CCCS(=O)(=O)NC(=O)c2ccc3c(c2)N(C[C@@H]2CC[C@H]2CN1)C[C@@]1(CCCc2cc(Cl)ccc21)CO3 [Example 370, (1S,3′R,6′R)-6-chloro-3,4-dihydro-2H,9′H,15′H-spiro[naphthalene-1,22′-[20]oxa[13]thia[1,8,14]triazatetracyclo[14.7.2.0^3,6.0^19,24]pentacosa[16,18,24]triene]-9′,15′-dione 13′,13′-dioxide]	4.5

Same assay, conditions: cell free Mcl-1:Bim TR-FRET, recombinant human Mcl-1 (171-327)

Molecule	IC50 [nM]
O=C1NS(=O)(=O)CCCCCC[C@H](O)[C@@H]2CC[C@H]2CN2C[C@@]3(CCCc4cc(Cl)ccc43)COc3ccc1cc32 [Example 835, (1S,3′R,6′R,7′S)-6-chloro-7′-hydroxy-3,4-dihydro-2H,16′H-spiro[naphthalene-1,23′[21]oxa[14]thia[1,15]diazatetracyclo[15.7.2.0^3,6.0^20,25]hexacosa[17,19,25]trien]-16′-one 14′,14′-dioxide]	3.44
C[C@@H]1CC/C=C/[C@H](O)[C@@H]2CC[C@H]2CN2C[C@@]3(CCc4cc(Cl)ccc43)COc3ccc(cc32)C(=O)NS1(=O)=O [Example 698, (1S,3′R,6′R,7′S,8′E,12′R)-5-chloro-7′-hydroxy-12′-methyl-2,3-dihydro-15′H-spiro[indene-1,22′-[20]oxa[13]thia[1,14]diazatetracyclo[14.7.2.0^3,6.0^19,24]pentacosa [8,16,18,24]tetraen]-15′-one 13′,13′-dioxide]	0.679
O=C1NS(=O)(=O)CCOCCC[C@@H]2CC[C@H]2CN2C[C@@]3(CCCc4ccccc43)COc3ccc1cc32 (stereo in doubt) [Example 824, (3S,6R,22S)-3′,4′-dihydro-2′H,15H-spiro[10,20-dioxa-13-thia-1,14-diazatetracyclo[14.7.2.0^3,6.^019,24]pentacosa-16,18,24-triene-22,1′-naphthalen]-15-one 13,13-dioxide]	20.1
O=C(C[C@@H]1CC/C=C/[C@H](O)[C@@H]2CC[C@H]2CN2C[C@@]3(CCCc4cc(Cl)ccc43)COc3ccc(cc32)C(=O)NS1(=O)=O)Nc1cccc(Cl)c1 (single isomer, unassigned) [Example 627]	10.1
COC[C@@]1(C)C/C=C/[C@H](O)[C@@H]2CC[C@H]2CN2C[C@@]3(CCCc4cc(Cl)ccc43)COc3ccc(cc32)C(=O)NS1(=O)=O (single isomer, unassigned) [Example 774]	1.72
O=C1NS(=O)(=O)CC/C=C/C[C@@H](O)[C@@H]2CC[C@H]2CN2C[C@@]3(CCCc4cc(Cl)ccc43)COc3ccc1cc32 (single isomer, unassigned) [Example 844]	11.1
O=C1NS(=O)(=O)CCCCCC(=O)[C@@H]2CC[C@H]2CN2C[C@@]3(CCCc4cc(Cl)ccc43)COc3ccc1cc32 [Example 832, (1S,3′R,6′R)-6-chloro-3,4-dihydro-2H,7′H,15′H-spiro[naphthalene-1,22′-[20]oxa[13]thia[1,14]diazatetracyclo[14.7.2.0^3,6.0^19,24]pentacosa [16,18,24]triene]-7′,15′-dione 13′,13′-dioxide]	8.26
(1S,3′R,6′S,14′S,15′R)-6-chloro-3,4-dihydro-2H,9′H,17′H-spiro[naphthalene-1,24′-[22]oxa[15]thia[1,10,16]triazapentacyclo[16.7.2.1^10,14.0^3,6.0^21,26]octacosa[18,20,26]triene]-9′,17′-dione 15′-oxide or (1S,3′R,6′S,14′S,15′S)-6-chloro-3,4-dihydro-2H,9′H,17′H-spiro[naphthalene-1,24′-[22]oxa[15]thia[1,10,16]triazapentacyclo[16.7.2.1^10,14.0^3,6.0^21,26]octacosa[18,20,26]triene]-9′,17′-dione 15′-oxide [Example 948]	10.3
O=C1NS(=O)(=O)CCCC[C@@H]2CC[C@H]2CN2C[C@@]3(CCCc4cc(Cl)ccc43)COc3ccc1cc32 [Example 830, (1S,3′S,6′S)-6-chloro-3,4-dihydro-2H,13′H-spiro[naphthalene-1,20′-[18]oxa[11]thia[1,12]diazatetracyclo[14.7.2.0^3,6.0^19,24]tricosa[14, 16,22]trien]-13′-one 11′,11′-dioxide]	21.1
O=C1NS(=O)(=O)C[C@H](O)/C=C/C[C@H](O)[C@@H]2CC[C@H]2CN2C[C@@]3(CCCc4cc(Cl)ccc43)COc3ccc1cc32 (single isomer, unassigned) [Example 598]	1.49

Tested on: OPM-2 human multiple myeloma cell line
Test: Cell Viability Assay (OPM-2 10 FBS)
Format: cell-based
Settings: Homo sapiens, OPM-2, 16 h, OPM-2 cells, 16 h, CellTiter-Glo
Procedure: Cell Viability Assay (OPM-2 10 FBS)
Cells were seeded into 384-well plates at 3000 cells/well density in complete growth medium containing 10% FBS, and incubated for 16 h with serially diluted test compounds in a 37° C. incubator with 5% CO2. Cell viability was tested using CellTiter-Glo® assay (Promega, Madison, WI) according to the manufacturer recommendations. Luminescence was determined using an EnVision® Multilabel plate reader 25 min after the addition of detection reagent. IC50 values were then calculated with Xlfit using a logistical 4-parameter fit model in GraphPad Prism (GraphPad Software, San Diego, CA) or in Genedata Screener® (Genedata, Basel, Switzerland).

Molecule	IC50 [nM]
Cc1noc(C)c1CO[C@@H]1/C=C/CCCS(=O)(=O)NC(=O)c2ccc3c(c2)N(C[C@@H]2CC[C@H]21)C[C@@]1(CCCc2cc(Cl)ccc21)CO3 [Example 214, (1S,3′R,6′R,7′R,8′E)-6-chloro-7′-((3,5-dimethyl-4-isoxazolyl)methoxy)-3,4-dihydro-2H,15′H-spiro[naphthalene-1,22′-[20]oxa[13]thia[1,14]diazatetracyclo[14.7.2.0^3,6.0^19,24]pentacosa [8,16,18,24]tetraen]-15′-one 13′,13′-dioxide]	2280
CC[C@@H]1CCCCC(=O)[C@@H]2CC[C@H]2CN2C[C@@]3(CCCc4cc(Cl)ccc43)COc3ccc(cc32)C(=O)NS1(=O)=O [Example 886, (1S,3′R,6′R,12′R)-6-chloro-12′-ethyl-3,4-dihydro-2H,7′H,15′H-spiro[naphthalene-1,22′-[20]oxa[13]thia[1,14]diazatetracyclo[14.7.2.0^3,6.0^19,24]pentacosa [16,18,24]triene]-7′,15′-dione 13′,13′-dioxide]	12300

Same assay, conditions: Homo sapiens, OPM-2, 16 h, OPM-2 cells, 16 h incubation, CellTiter-Glo

Molecule	IC50 [nM]
CC[C@@H]1CC/C=C/[C@H](OCC(=O)N2CCOCC2)[C@@H]2CC[C@H]2CN2C[C@@]3(CCCc4cc(Cl)ccc43)COc3ccc(cc32)C(=O)NS1(=O)=O [Example 979, (1S,3′R,6′R,7′S,8′E,12′R)-6-chloro-12′-ethyl-7′-(2-(4-morpholinyl)-2-oxoethoxy)-3,4-dihydro-2H,15′H-spiro[naphthalene-1,22′-[20]oxa[13]thia[1,14]diazatetracyclo[14.7.2.0^3,6.0^19,24]pentacosa [8,16,18,24]tetraen]-15′-one 13′,13′-dioxide]	16900
CC[C@@H]1CC/C=C/[C@H](OCCC(=O)OC)[C@@H]2CC[C@H]2CN2C[C@@]3(CCCc4cc(Cl)ccc43)COc3ccc(cc32)C(=O)NS1(=O)=O [Example 1007]	74

Same assay, conditions: Homo sapiens, OPM-2 cells, 16 h, CellTiter-Glo

Molecule	IC50 [nM]
CO[C@H]1C/C=C/[C@H](C)[C@@H](C)S(=O)(=O)NC(=O)c2ccc3c(c2)N(C[C@@H]2CC[C@H]21)C[C@@]1(CCCc2cc(Cl)ccc21)CO3 [Example 17, (1S,3′R,6′R,7′S,9′E,11′S,12′R)-6-chloro-7′-methoxy-11′,12′-dimethyl-3,4-dihydro-2H,15′H-spiro[naphthalene-1,22′-[20]oxa[13]thia[1,14]diazatetracyclo[14.7.2.0^3,6.0^19,24]pentacosa[9,16,18,24]tetraen]-15′-one 13′,13′-dioxide]	7920

Same assay, conditions: OPM-2 cells, 16 h incubation, CellTiter-Glo

Molecule	IC50 [nM]
COC[C@@H]1C[C@@H](C)CC[C@H](O)[C@@H]2CC[C@H]2CN2C[C@@]3(CCCc4cc(Cl)ccc43)COc3ccc(cc32)C(=O)NS1(=O)=O (single isomer, unassigned) [Example 1037]	744

Reference: US12091425B2 (AMGEN INC., priority 2016, dated 2024)
